The text below walks through data of patent US8598170B2, “Dual-acting oxazole antihypertensive agents” (Theravance, Inc., priority 2009, dated 2013).

Molecules are shown by their SMILES.

One experiment deals with T1, NEP enzyme (Homo sapiens, UniProt P08473).
T1 construct: purchased R&D Systems, Minneapolis, Minn; 1182-ZN
Nature of the experiment: In vitro NEP enzyme inhibition assay (fluorogenic peptide substrate). It is filed as biochemical. To be noted: read-out: pIC50 for the NEP enzyme (converted). On the procedure: The inhibitory activities of compounds at human and rat NEP and human ACE were determined using in vitro assays as described below.
Rat NEP was prepared from the kidneys of adult Sprague Dawley rats. Whole kidneys were washed in cold PBS and brought up in ice-cold lysis buffer (1% Triton X-114, 150 mM NaCl, 50 mM Tris pH 7.5; Bordier (1981) J. Biol. Chem. 256:1604-1607) in a ratio of 5 mL of buffer for every gram of kidney. Samples were homogenized using a polytron hand held tissue grinder on ice. Homogenates were centrifuged at 1000×g in a swinging bucket rotor for 5 minutes at 3° C. The pellet was resuspended in 20 mL of ice cold lysis buffer and incubated on ice for 30 minutes. […] Protein concentrations were quantitated using a BCA detection system with BSA as a standard. […]
The assays were performed in 384-well white opaque plates at room temperature using the respective fluorogenic peptides at a concentration of 10 μM in assay buffer (50 mM Tris/HCl at 25° C., 100 mM NaCl, 0.01% Tween-20, 1 μM Zn, 0.025% BSA). […] The rat NEP enzyme preparation was used at a concentration that yielded quantitative proteolysis of 3 μM of Mca-RRL within 20 minutes at room temperature. […]
Plates were read on a fluorometer with excitation and emission wavelengths set to 320 nm and 405 nm, respectively. […]

Another experiment deals with T2, human AT1 receptor (Homo sapiens, UniProt P30556).
T2 construct: expressed in transfected cells; host or cells: CHO-K1
T2 sequence (P30556 1-359): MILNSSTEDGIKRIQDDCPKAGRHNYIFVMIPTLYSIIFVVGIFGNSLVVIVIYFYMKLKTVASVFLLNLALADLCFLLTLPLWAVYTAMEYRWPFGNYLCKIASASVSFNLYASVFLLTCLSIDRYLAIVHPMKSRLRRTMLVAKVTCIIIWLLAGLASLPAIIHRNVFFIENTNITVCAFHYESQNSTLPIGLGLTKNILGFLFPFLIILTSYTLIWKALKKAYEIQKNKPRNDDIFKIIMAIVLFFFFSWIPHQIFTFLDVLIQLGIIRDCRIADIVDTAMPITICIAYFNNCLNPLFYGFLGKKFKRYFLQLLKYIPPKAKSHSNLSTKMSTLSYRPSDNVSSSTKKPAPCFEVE
Nature of the experiment: AT1 radioligand binding assay ([Eu]AngII displacement, CHO-K1 membranes). As to conditions: read-out: pKi at the AT1 receptor (converted). The method, then: These in vitro assays were used to assess the ability of test compounds to bind to the AT1 and the AT2 receptors.
Chinese hamster ovary (CHO-K1) derived cell lines stably expressing the cloned human AT1 or AT2 receptors, respectively, were grown in HAM's-F 12 medium supplemented with 10% fetal bovine serum, 10 μg/ml penicillin/streptomycin, and […] in a 5% CO2 humidified incubator at 37° C. AT2 receptor expressing cells were grown in the additional presence of 100 nM PD123,319 (AT2 antagonist). When cultures reached 80-95% confluence, the cells were washed thoroughly in PBS and lifted with 5 mM EDTA. Cells were pelleted by centrifugation and snap frozen in MeOH-dry ice and stored at −80° C. until further use.
For membrane preparation, cell pellets were resuspended in lysis buffer (25 mM Tris/HCl pH 7.5 at 4° C., 1 mM EDTA, and one tablet of Complete Protease Inhibitor Cocktail Tablets with 2 mM EDTA per 50 mL buffer (Roche cat. #1697498, Roche Molecular Biochemicals, Indianapolis, Ind.)) and homogenized using a tight-fitting Dounce glass homogenizer (10 strokes) on ice. The homogenate was centrifuged at 1000×g, the supernatant was collected and centrifuged at 20,000×g. […] Protein concentration of the membrane suspension was determined by the method described in Bradford (1976) Anal Biochem. 72:248-54. […]

T1 sequence (P08473 52-750 limits assumed): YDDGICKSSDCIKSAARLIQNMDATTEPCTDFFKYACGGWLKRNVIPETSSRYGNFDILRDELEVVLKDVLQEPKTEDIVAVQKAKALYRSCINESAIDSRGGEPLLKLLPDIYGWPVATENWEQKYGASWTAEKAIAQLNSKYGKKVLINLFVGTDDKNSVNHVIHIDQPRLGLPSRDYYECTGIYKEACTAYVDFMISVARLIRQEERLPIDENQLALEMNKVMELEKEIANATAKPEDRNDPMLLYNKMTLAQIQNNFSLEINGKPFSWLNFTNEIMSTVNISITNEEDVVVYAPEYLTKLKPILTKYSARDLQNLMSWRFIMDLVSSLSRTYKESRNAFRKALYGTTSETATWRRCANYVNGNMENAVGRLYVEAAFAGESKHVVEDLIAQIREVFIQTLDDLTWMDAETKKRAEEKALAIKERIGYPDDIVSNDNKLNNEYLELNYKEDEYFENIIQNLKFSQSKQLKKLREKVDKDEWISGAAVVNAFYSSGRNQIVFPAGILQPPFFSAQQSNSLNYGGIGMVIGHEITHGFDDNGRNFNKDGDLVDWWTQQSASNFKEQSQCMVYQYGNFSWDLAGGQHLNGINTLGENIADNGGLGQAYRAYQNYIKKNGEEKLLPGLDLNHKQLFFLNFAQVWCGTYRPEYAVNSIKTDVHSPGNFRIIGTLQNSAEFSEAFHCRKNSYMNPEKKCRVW

Consider `CCCc1oc(C(=O)N[C@H](Cc2ccccc2)[C@@H](O)C(=O)O)nc1Cc1ccc(-c2ccccc2-c2nnn[nH]2)cc1` [Example 1, (2R,3R)-2-Hydroxy-4-phenyl-3-({5-propyl-4-[2′-(1H-tetrazol-5-yl)-biphenyl-4-ylmethyl]-oxazole-2-carbonyl}amino)butyric Acid], for which, at NEP enzyme, the IC50 is under 1000 nM. The Ki at human AT1 receptor was under 31.6 nM.
